Assays:
[1] = Sweetness detection threshold level in water, multi-sip and swallow taste method; type: in vivo, human; settings: for Sweetness Detection Threshold Level: in water at room temperature
Text: As used herein, the terms “sweetness threshold,” “sweetness recognition threshold,” and “sweetness detection threshold” are understood to mean the level at which the lowest known concentration of a certain sweet compound that is perceivable by the human sense of taste and it can vary from person to person. For example, a typical sweetness threshold level for sucrose in water can be 0.5%.
Further for example, the at least one sweetness enhancer to be used can be assayed in water at least 25% lower and at least 25% higher than the sucrose detection level of 0.5% in water to determine the sweetness threshold level.
(§1) A first sip (approximately 2.2 mL) of a ca. 20 mL control composition was taken and swallowed. After waiting for a time ranging from 15 to 25 seconds, a second sip of control composition was taken and swallowed, and the sweetness and/or taste of the control composition was noted. After waiting for a time ranging from 15 to 25 seconds, these steps were repeated with a comparative composition. The sweetness and taste differences between the control and the comparative composition were noted. For each tested composition, this cycle was repeated once to confirm the initial findings. All samples were measured at average 23.0° C.±1° C. between samples for consistent comparison and to minimize any effects of temperature on the perceived taste or sweetness of the composition.
(§2) To perform the taste test, three sweetener samples were paired with one additive and taste tested as described above. A three minute break was taken before tasting another three sweetener samples paired with a different additive. Up to 10 additives per day were used to minimize a fatigue factor. Before tasting, at least 1.5 hours elapsed after ingestion of any food, drink or nicotine. The tests were repeated on a different date to validate the initial findings.
The sweetness detection threshold levels for 21 entities were measured by a single assessor in water at room temperature according to the multi-sip and swallow taste method described herein.

[2] = Sweetness enhancement of glucose, fructose or sucrose at 6% SE in water by additive at its threshold level; type: in vivo, human; set-up: key: T: Slight thicker-like sweetness (not intensity factor).; No difference; N(S+): No difference but slightly more sweet (0.5-0.75%); +S: More sweetness intensity (~1.0% SE); ++S: Much more sweetness intensity (~2.0% SE); settings: room temperature, additive at its Table 1 threshold level; for Sensory result versus FRU 55,000 ppm: fructose at 6% SE in water; for Sensory result versus GLU 99,000 ppm: glucose at 6% SE in water; for Sensory result versus SUC 60,000 ppm: sucrose at 6% SE in water
Method: as §1, §2
The twenty-one entities above were combined in a concentration at the sweetness detection threshold level listed in Table 1, with one of Glucose (GLU), Fructose (FRU), and Sucrose (SUG), each at a fixed SE (Sucrose Equivalents) level of 6%. The sweetness of the compositions was measured as described above at room temperature.

[3] = By-products of 500 ppm REB A after two months of storage in phosphoric acid at RT; type: physicochemical; settings: approximated concentration of by-product of 500 ppm REB A
[4] = value is min. off-taste threshold

Row | Levels After 2 Month of Storage [3] [ppm] | Compound | Sweetness Detection Threshold Level ([1]; single assessor) [ppm] | Sensory result versus FRU 55,000 ppm [2] | Sensory result versus GLU 99,000 ppm [2] | Sensory result versus SUC 60,000 ppm [2] | Sweetness Threshold Level ([1]; estimation sweetness/off-taste threshold in water at room temperature (RT)) [ppm] | Sweetness Threshold Level ([1]; in water at RT, value is max. level for solubility) [ppm] | Sweetness Detection Threshold Level ([1]; value is max. level for solubility) [ppm] | Sweetness Detection Threshold Level [1, 4] [ppm]
1 | – | C=C1C[C@@]23CC[C@H]4[C@@](C)(CCC[C@@]4(C)C(=O)O[C@@H]4O[C@H](CO)[C@@H](O)[C@H](O)[C@H]4O)[C@@H]2CC[C@]1(O[C@@H]1O[C@H](CO)[C@@H](O)[C@H](O)[C@H]1O[C@@H]1O[C@@H](C)[C@H](O)[C@@H](O)[C@H]1O)C3 [Dulcoside A] | 50 | N | N | N | – | – | – | –
2 | – | Rebaudioside F | 25 | N | N | N(S+) (No difference but slightly more sweet (0.5-0.75%)) | – | – | – | –
3 | – | C=C1C[C@@]23CC[C@H]4[C@@](C)(CCC[C@@]4(C)C(=O)O[C@@H]4O[C@H](CO)[C@@H](O)[C@H](O)[C@H]4O)[C@@H]2CC[C@]1(O[C@@H]1O[C@H](CO)[C@@H](O)[C@H](O[C@@H]2O[C@H](CO)[C@@H](O)[C@H](O)[C@H]2O)[C@H]1O[C@@H]1O[C@H](CO)[C@@H](O)[C@H](O)[C@H]1O)C3 [Rebaudioside A] | 12.6 | N | N | N | – | – | – | –
4 | – | C[C@H](CC[C@@H](O[C@@H]1O[C@H](CO[C@@H]2O[C@H](CO)[C@@H](O)[C@H](O)[C@H]2O)[C@@H](O)[C@H](O)[C@H]1O[C@@H]1O[C@H](CO)[C@@H](O)[C@H](O)[C@H]1O)C(C)(C)O)[C@H]1CC[C@@]2(C)[C@@H]3CC=C4[C@@H](CC[C@H](O[C@@H]5O[C@H](CO[C@@H]6O[C@H](CO)[C@@H](O)[C@H](O)[C@H]6O)[C@@H](O)[C@H](O)[C@H]5O)C4(C)C)[C@]3(C)[C@H](O)C[C@]12C [Mogroside V] | 20 | N | N | N | – | – | – | –
5 | 1 | C[C@@]12CCC[C@@](C)(C(=O)O[C@@H]3O[C@H](CO)[C@@H](O)[C@H](O)[C@H]3O)[C@H]1CC[C@]13C=C(CO)[C@](O[C@@H]4O[C@H](CO)[C@@H](O)[C@H](O[C@@H]5O[C@H](CO)[C@@H](O)[C@H](O)[C@H]5O)[C@H]4O[C@@H]4O[C@H](CO)[C@@H](O)[C@H](O)[C@H]4O)(CC[C@H]12)C3 [13-[(2-O-β-D-glucopyranosyl-3-O-β-D-glucopyranosyl]-β-D-glucopyranosyl)oxy]-17-hydroxy-kaur-15-en-18-oic acid β-D-glucopyranosyl ester] | 250 | N | N | N(S+) (No difference but slightly more sweet (0.5-0.75%)) | 250 | – | – | –
6 | 33 | CC1(C(=O)O)CCCC2(C)C3CCC4(OC5OC(CO)C(O)C(OC6OC(CO)C(O)C(O)C6O)C5OC5OC(CO)C(O)C(O)C5O)CC3(CCC12)CC4(C)O [13-[(2-O-β-D-glucopyranosyl-3-O-β-D-glucopyranosyl-β-D-glucopyranosyl)oxy]-16-hydroxy kauran-18-oic acid] | – | N | N | N | – | 500 | 500 | –
7 | – | C=C1C[C@@]23CC[C@H]4[C@@](C)(CCC[C@@]4(C)C(=O)O[C@@H]4O[C@H](CO)[C@@H](O)[C@H](O)[C@H]4O)[C@@H]2CC[C@]1(O[C@@H]1O[C@H](CO)[C@@H](O)[C@H](O)[C@H]1O[C@@H]1O[C@H](CO)[C@@H](O)[C@H](O)[C@H]1O)C3 [Stevioside] | 25 | N | N | N | – | – | – | –
8 | – | C=C1C[C@@]23CC[C@H]4[C@@](C)(CCC[C@@]4(C)C(=O)OC4OC(C(=O)O)C(O)C(O)C4O)[C@@H]2CC[C@]1(O)C3 (stereo partly shown) [Steviol glucuronide] | 85 | N | N | N | – | – | – | –
9 | – | C=C1C[C@@]23CC[C@H]4[C@@](C)(CCC[C@@]4(C)C(=O)O[C@@H]4O[C@H](CO)[C@@H](O)[C@H](O)[C@H]4O[C@@H]4O[C@H](CO)[C@@H](O)[C@H](O)[C@H]4O)[C@@H]2CC[C@]1(O[C@@H]1O[C@H](CO)[C@@H](O)[C@H](O[C@@H]2O[C@H](CO)[C@@H](O)[C@H](O)[C@H]2O)[C@H]1O[C@@H]1O[C@H](CO)[C@@H](O)[C@H](O)[C@H]1O)C3 [Rebaudioside D] | 25 | N | N | N(S+) (No difference but slightly more sweet (0.5-0.75%)) | – | – | – | –
10 | – | C=C1C[C@@]23CC[C@H]4[C@@](C)(CCC[C@@]4(C)C(=O)O[C@@H]4O[C@H](CO)[C@@H](O)[C@H](O)[C@H]4O)[C@@H]2CC[C@]1(O[C@@H]1O[C@H](CO)[C@@H](O)[C@H](O[C@@H]2O[C@H](CO)[C@@H](O[C@H]4O[C@H](CO)[C@@H](O)[C@H](O)[C@H]4O)[C@H](O)[C@H]2O)[C@H]1O[C@@H]1O[C@H](CO)[C@@H](O)[C@H](O)[C@H]1O)C3 [13-[(2-O-β-D-glucopyranosyl-3-O-(4-O-α-D-glucopyranosyl)-β-D-glucopyranosyl-β-D-glucopyranosyl)oxy] kaur-16-en-18-oic acid β-D-glucopyranosyl ester] | 50 | T | T | N | – | – | – | –
11 | – | C=C1C[C@@]23CC[C@H]4[C@@](C)(CCC[C@@]4(C)C(=O)O)[C@@H]2CC[C@]1(O[C@@H]1O[C@H](CO)[C@@H](O)[C@H](O)[C@H]1O[C@@H]1O[C@H](CO)[C@@H](O)[C@H](O)[C@H]1O)C3 [Steviolbioside] | 50 | N | N | N | – | – | – | –
12 | – | C=C1C[C@@]23CC[C@H]4[C@@](C)(CCC[C@@]4(C)C(=O)O[C@@H]4O[C@H](CO)[C@@H](O)[C@H](O)[C@H]4O)[C@@H]2CC[C@]1(O[C@@H]1O[C@H](CO)[C@@H](O)[C@H](O[C@@H]2O[C@H](CO)[C@@H](O)[C@H](O)[C@H]2O)[C@H]1O)C3 [13-[(3-O-β-D-glucopyranosyl-β-D-glucopyranosyl)oxy] kaur-16-en-18-oic acid β-D-glucopyranosyl ester] | 35 | N | N | N | – | – | – | –
13 | – | C=C1CC23CCC4C(C)(C(=O)OC5OC(CO)C(O)C(O)C5O)CCCC4(C)C2CCC1(O)C3 [13-hydroxy-kaur-16-en-18-oic acid β-D-glucopyranosyl ester] | – | N | N | N | – | – | – | 10
14 | – | C[C@@]12CC[C@@H]3[C@@](CC[C@H]4[C@@]3(C)CCC[C@@]4(C)C(=O)OC3OC(CO)C(O)C(O)C3O)(CC1=O)C2 (stereo partly drawn) [13-methyl-16-oxo-17-norkauran-18-oic acid β-D-glucopyranosyl ester] | – | N | N | N | – | – | – | 15
15 | – | CC1=CC23CCC4C(C)(C(=O)OC5OC(CO)C(O)C(O)C5O)CCCC4(C)C2CCC1(OC1OC(CO)C(O)C(OC2OC(CO)C(O)C(O)C2O)C1OC1OC(CO)C(O)C(O)C1O)C3 [13-[(2-O-β-D-glucopyranosyl-3-O-β-D-glucopyranosyl-β-D-glucopyranosyl)oxy] kaur-15-en-18-oic acid β-D-glucopyranosyl ester] | 25 | N(S+) (No difference but slightly more sweet (0.5-0.75%)) | N | N(S+) (No difference but slightly more sweet (0.5-0.75%)) | – | – | – | –

Source: patent publication US20110160311A1, “Sweetness Enhancers, Compositions Thereof, and Methods for Use” (The Coca-Cola Company, priority 2009, published 2011)
